# Results: US11065211B2, “Isoxylitones mediated neurogenesis” (priority 2018, dated 2021)
# Experiments:
# Assay type in all cases: cell-based, rat
# [1] = tested on: GFAP; test: Immunocytochemical analysis of primary cultured and cocultured cells; settings: 24 h
# Method: (§1) Immuncytochemical analysis was performed for differentiation studies of primary cultures of cortex, hippocampus, and co-cultures (CoCul) in absence of growth factors and serum free medium.
# (§2) The cultured cells of cortex, hippocampus, and co-cultured cells in the presence of serum free medium were plated in chamber slides at the density of 20,000 cells/mL and treated with a proliferative dose of isoxylitones, i.e., 150 μg/ml for 24 hrs at 37° C. and 5% CO2 to let the cells adhere on the bottom surface of the slide. Following incubation, the media was refreshed and the cells were immunolabelled as mentioned in table #2.1.
# (§3) For immunostaining, the media was removed; cells were washed gently with 1 mL of 1×PBS. After removing 1×PBS, 4% formaldehyde was added and the slides were incubated for 20 minutes at room temperature to fix the cells. The fixative was aspirated followed by a three times rinse with 1 mL of 1×PBS. After washing, the blocking buffer (BSA having 3% normal goat serum, 0.2% tween-20 and 0.3% of Triton X-100 in 10×PBS) was added and the slides were kept at room temperature for an hour. Then, the cells were washed gently three times with 1×PBS on an orbital shaker and 300 μL of primary antibodies (dilution mentioned in table #2.1) were added to each slide and incubated overnight at 4° C. Following incubation, the cells were washed gently in PBS three times (5 minutes each wash) on an orbital shaker. Next secondary antibody (Table #2.1) in 3% normal serum or BSA was added to their respective chamber and incubated for 1 hour at room temperature in dark. Following incubation, the slides were washed with 1×PBS.
# (§4) Diluted Dapi (1:1000) was added into each slide to counter stain the nucleus. After rinsing twice with distilled water, images were captured using the Nikon 90i with fluorescence microscopes (Nikon. Tokyo, Japan) equipped with Nuance Software version 3.1 (Caliper Life Sciences. Hopkinton, Mass.). The magnification used was 20×.
# (§5) For quantification studies, ImageJ software (National Institutes of Health, USA) was used to digitalized the images. This software provides multiple imaging system data comparisons taking densitometry in consideration. Briefly, 5 different regions were randomly selected and the fluorescence intensity was quantified in cells and the background intensity of each image was subtracted from it, the residual particles were measured to represent expression of relevant protein. Cells or fields were counted and percentage intensity of protein expression was measured and means percentage intensity was calculated. Data from three individual experiments was obtained and expressed as means±SEM.
# [2] = tested on: Calretinin (CR); test: as above; settings: vs control
# Method: as §1, §2, §3, §4, §5
# [3] = tested on: nestin; test: as above; settings: 24 h
# Method: as §1, §2, §3, §4, §5
# [4] = tested on: neurogenin; test: as above
# Method: as §1, §2, §3, §4, §5
# [5] = tested on: Cocul-CTX cells; test: BrdU proliferation ELISA assay; settings: 150 μg/ml, 24 h, FIG. 6
# Method: (§6) Wistar rats (150-200 gm) were used to isolate bone marrow (BM). Rats were sacrificed and their femurs were removed aseptically. The bone marrow (BM) was flushed from the shaft of the bone by clipping of the epiphysial ends and flushing using a 26-gauge needle with ˜2 ml of Dulbecco's Modified Eagle's medium (DMEM) supplemented with 5% FBS, 1% penicillin/streptomycin solution, 1% sodium pyruvate and L-glutamine. The BM was then centrifuged for 8 minutes at 1000 rpm. Following centrifugation, cell pellet was collected and 1 ml of fresh DMEM was added. The cell viability was checked using trypan blue exclusion method. The cells were then divided into three equal parts. One part was co-cultured with freshly isolated hippocampal cells in T75 cm^2 flask, 2nd with freshly isolated cortical cells and the third portion (BM cells only) was cultured as a control. The cell density for co-cultures was set at 140,000 cells/ml for each type of culture. The cultured flasks were then incubated at 37° C. and 5% CO2. After 4-5 days, floating hematopoietic cells and dead debris/tissues of hippocampus and cortex were removed and bone marrow stromal cells (BMSCs) were recovered due to their tendency to adhere. Medium was replaced after every 3 to 4 days till cells became 80-90% confluent. […]
# [6] = tested on: Cocul-HP cells; test: BrdU proliferation ELISA assay; settings: 24 h, increase reported with 100 and 150 μg/mL, FIG. 6
# Method: as §6
structure (smiles),measurement,setting,value
CC(=O)C=C1C=C(C)CC(C)(C)C1 (mixture of isomers) [isoxylitones],GFAP expression (immunofluorescence),"[1]; (A) cortical and (B) CoCul-CTX cells, vs vehicle control, FIG. 10",prominent increase of GFAP expression
same,"GFAP immunochemistry, intensity of images","[1]; (A) hippocampal and (B) CoCul-HP cells, 150 μg/ml, vs control, FIG. 11",No significant difference in intensity
same,Calretinin (CR) fluorescent intensity,"[2]; (A) cortical and (B) CoCul-CTX cells, FIG. 14",prominent increase in the fluorescent intensity of calretinin
same,CR expression (immunoreactivity),"[2]; (A) hippocampal and (B) CoCul-HP cells, FIG. 15",significant increase in CR expression
same,nestin expression (immunofluorescence),"[3]; (A) CTX and (B) CoCul-CTX cells, vs control, FIG. 9",no significant difference
same,nestin expression (immunofluorescence),"[3]; (A) hippocampal and (B) CoCul-HP cells, 150 μg/ml, vs untreated control, FIG. 8",up-regulation of nestin protein expression
same,neurogenin expression (immunostaining),"[4]; (A) cortical and (B) CoCul-CTX cells, FIG. 18",prominent neurogenin expression
same,neurogenin expression (immunostaining),"[4]; (A) hippocampal and (B) CoCul-HP cells, 24 h, vs control P<0.001, FIG. 19",elevated neurogenin expression
same,BrdU positive cells,[5],increased BrdU positive cells
same,BrdU positive cells,[6],significantly elevated the BrdU positive cells
